{
  "source": "patent US20240182525A1",
  "about": "“NOVEL BICYCLIC COMPOUND, OPTICAL ISOMER THEREOF OR PHARMACEUTICALLY ACCEPTABLE SALT THEREOF, USE THEREOF, AND PREPARATION METHOD THEREFOR” (KOREARESEARCH INSTITUTE OF BIOSCIENCE AND BIOTECHNOLOGY, priority 2021, published 2024)",
  "key": {"[1]": {"test_system": "adipogenesis-associated genes (3T3-L1 cells)", "test": "Q-PCR of adipogenesis-associated genes", "format": "cell-based, mouse", "settings": "FIG. 11", "source_text": "In addition, real-time polymerase chain reaction (Q-PCR) was used to confirm the expression of adipogenesis-associated genes. As a result, it was confirmed that the amount of adipogenesis induction-associated mRNA was reduced when treated with the compound of Chemical Formula 1 according to the present invention (FIG. 11)."}, "[2]": {"test": "Cytotoxicity assay, A375", "format": "cell-based", "settings": "human, A375 cells (malignant melanoma); A375, 48 hours, maximum concentration 100 μM", "method": "(§1) To measure the cytotoxicity of the compound represented by Chemical Formula 1 (Chemical Formula 1-1), toxicity was measured in mouse preadipocyte 3T3-L1 cell line, human malignant melanoma A375 cell line, mouse malignant melanoma B16F10 cell line, human oral cancer MDA-MB-435 cell line, mouse breast cancer 4T1 cell line, human breast cancer MCF7 cell line, human brain cancer U87MG cell line, human glioblastoma U373MG cell line, human cervical cancer HeLa cell line, mouse embryonic fibroblast (MEF) cell line, human embryonic kidney HEK293T cell line (Korea Cell Line Bank). First, 1×10^4 cells were divided into 200 μl each in a 96-well plate using Dulbecco's Modified Eagle's Medium (DMEM) supplemented with 10% fetal bovine serum (FBS), […] streptomycin, and 50 U/ml penicillin, while maintaining various cells at 37r in an atmosphere of 5% CO2. The cells were treated with the compound of Chemical Formula 1-1 of the present invention at a maximum concentration of 100 μM and cultured for 48 hours under the same culture conditions. After the incubation, the culture media were removed and the cytotoxicity test results were confirmed (Table 2 and FIG. 3 below)."}, "[3]": {"test_system": "mouse 3T3-L1 cell line", "test": "Adipogenesis inhibitory effect test, Oil Red O staining", "format": "cell-based", "method": "The adipogenesis inhibitory activity of Chemical Formula 1 according to the present invention was measured through Oil Red O staining in mouse 3T3-L1 cell line. First, 3T3-L1 cells were placed in a 48-well plate (1×10^4 cell/well) and cultured for 24 hours in a 37° C. CO2 incubator. The next day, the cells were replaced with the normal culture media (Undifferentiated media; UND) and the differentiation induction medium (Differentiation media; DM), respectively, followed by treatment with 2.5-10 μM of Chemical Formula 1-1 for 48 hours. Then, the cells were replaced with the normal culture media (Maintainment media; MM), and cultured with 2.5-10 μM of Chemical Formula 1-1 for 72 hours, and then treated with Oil Red O.\nIn addition, the same experiment was conducted with the compound of Chemical Formula 1-1 at a fixed concentration of 7.5 μM and Wnt3a-conditional media at 10-2.5%."}, "[4]": {"test": "Cytotoxicity assay, MEF", "format": "cell-based", "settings": "mouse, MEF cells (embryonic fibroblasts), maximum concentration 100 μM", "method": "as §1"}, "[5]": {"test": "Cytotoxicity assay, U87MG", "format": "cell-based", "settings": "human, U87MG cells (brain cancer), maximum concentration 100 μM", "method": "as §1"}, "[6]": {"test": "Cytotoxicity assay, U373MG", "format": "cell-based", "settings": "human, U373MG cells (glioblastoma), maximum concentration 100 μM", "method": "as §1"}, "[7]": {"test": "Cytotoxicity assay, MCF7", "format": "cell-based", "settings": "human, MCF7 cells (breast cancer); MCF7, 48 hours, maximum concentration 100 μM", "method": "as §1"}, "[8]": {"test": "Cytotoxicity assay, 4T1", "format": "cell-based", "settings": "mouse, 4T1 cells (breast cancer); 4T1, 48 hours, maximum concentration 100 μM", "method": "as §1"}, "[9]": {"test_system": "MC3T3-E1 cells", "test": "Alkaline phosphatase (ALP) staining of MC3T3-E1 cells", "format": "cell-based, mouse", "settings": "5, 10, and 20 νM, 7 days, FIG. 15", "source_text": "In order to analyze the effect of the compound of Chemical Formula 1 according to the present invention on ALP activity, the morphology of MC3T3-E1 cells according to the treatment with the compound of Chemical Formula 1 according to the present invention was confirmed by alkaline phosphatase (ALP) staining of the MC3T3-E1 cell line.\nIn the present Example, the effect of Chemical Formula 1-1 on the activity of alkaline phosphatase (ALP), which is one of the representative markers of osteoblast differentiation, was measured. MC3T3-E1 cells, which are mouse osteoblasts, were inoculated into a 96-well plate at a concentration of 5×10^3 cell/well, and incubated overnight in growth media containing alpha-minimum essential media (alpha-MEM, JBI #008-53) supplemented with 10% fetal bovine serum (FBS, Gibco #16000, USA) and 1× antibiotics (Gibco #15240062, USA). As a negative control, an alpha minimum essential medium containing 10% FBS was used. As positive controls, 100 μg/ml of ALP-activating ascorbic acid and 10 mM of β-glycerophosphate were mixed, and the positive controls were exchanged with media added with 5, 10, and 20 νM of Chemical Formula 1-1 on Day 3, and treated for 7 days. After 7 days, the media were discarded, and the cells were washed with PBS, and fixed with 10% formalin for 1 minute. […]"}, "[10]": {"test": "Cytotoxicity assay, B16F10", "format": "cell-based", "settings": "mouse, B16F10 cells (malignant melanoma); B16F10, 48 hours, maximum concentration 100 μM", "method": "as §1"}, "[11]": {"test_system": "C57BL/C6 mice", "test": "Blood obesity and liver damage markers in high calorie diet mice", "format": "in vivo, mouse", "settings": "plasma, compared to high calorie control group, FIG. 13", "method": "Then, after the experiment was completed, the animal blood of each group was collected and centrifuged to separate plasma, and then representative obesity markers in the blood such as total cholesterol (tCHO), high density lipoprotein (HDL), and low density lipoprotein (LDL), and liver damage markers such as glutamic oxaloacetic transaminase (GOT) and glutamic pyruvic acid transaminase (GPT) were analyzed with a blood chemistry analyzer."}, "[12]": {"test_system": "C57BL/C6 mice", "test": "Anti-obesity effect in high calorie diet mouse model", "format": "in vivo", "settings": "high calorie diet + 15 mg/kg, FIG. 12", "method": "C57BL/C6 mice were used to test the anti-obesity effect in a mouse model with respect to the compound of Chemical Formula 1 of the present invention, which is an adipogenesis-inhibiting compound. For effective evaluation of the anti-obesity model, the control group (general diet), the control group (high calorie diet), and an anti-obesity control group (high calorie diet+Chemical Formula 1 (15 mg/kg)) were compared and evaluated (FIG. 12). The mice injected with the high-calorie diet rather than the general diet gained 131% in body weight, but the mice treated with the high-calorie diet and Chemical Formula 1 (15 mg/kg) together […] 115% in body weight."}},
  "data": [
    {"smiles": "CC(C)CC1NC(=O)C2CCCN2C(=O)C(C(O)C(C)C)NC(=O)CNC(=O)C(C(C)O)NC(=O)C2NC(=O)C(NC(=O)/C=C/c3ccccc3C(O)C(C)O)C(C)OC(=O)C(CC(N)=O)NC(=O)C(NC(=O)C(O)NC1=O)C(O)c1ccc(O)c(c1)Oc1ccc2cc1", "note": "(stereo not shown) [Chemical Formula 1-1]", "values": [
      {"measurement": "amount of adipogenesis induction-associated mRNA", "setting": "[1]", "result": "reduced"},
      {"measurement": "IC50 at 48 h", "setting": "[2]", "result": "> 100", "unit": "µM"},
      {"measurement": "adipogenesis inhibitory activity", "setting": "[3]; 2.5-10 μM, Oil Red O, FIG. 8", "result": "exhibited the adipogenesis inhibitory activity in a concentration-dependent manner"},
      {"measurement": "adipogenesis inhibitory activity", "setting": "[3]; fixed 7.5 μM with Wnt3a-conditional media at 10-2.5%, FIG. 9", "result": "excellent"},
      {"measurement": "IC50 at 48 h", "setting": "[4]", "result": "> 100", "unit": "µM"},
      {"measurement": "IC50 at 48 h", "setting": "[5]", "result": "> 100", "unit": "µM"},
      {"measurement": "IC50 at 48 h", "setting": "[6]", "result": 89.5, "unit": "µM"},
      {"measurement": "IC50 at 48 h", "setting": "[7]", "result": "> 100", "unit": "µM"},
      {"measurement": "IC50 at 48 h", "setting": "[8]", "result": "> 100", "unit": "µM"},
      {"measurement": "alkaline phosphatase staining (ALP) positive cells", "setting": "[9]", "result": "strongly stained in a concentration-dependent manner"},
      {"measurement": "IC50 at 48 h", "setting": "[10]", "result": "> 100", "unit": "µM"},
      {"measurement": "glutamic oxaloacetic transaminase (GOT)", "setting": "[11]", "result": "significantly reduced"},
      {"measurement": "glutamic pyruvic acid transaminase (GPT)", "setting": "[11]", "result": "significantly reduced"},
      {"measurement": "high density lipoprotein (HDL)", "setting": "[11]", "result": "increased"},
      {"measurement": "low density lipoprotein (LDL)", "setting": "[11]", "result": "significantly reduced"},
      {"measurement": "total cholesterol (tCHO)", "setting": "[11]", "result": "significantly reduced"},
      {"measurement": "abdominal fat weight", "setting": "[12]", "result": "significant decrease"},
      {"measurement": "liver weight", "setting": "[12]", "result": "significant decrease"},
      {"measurement": "body weight", "setting": "[12]; high-calorie diet alone 131%", "result": 115, "unit": "%"}
    ]}
  ]
}
